Data from patent US12629387B2, “Composition of antiviral agent for use in prophylactic or post-exposure treatment of infectious or respiratory diseases” (InspirMed Corp., priority 2020, dated 2026).

Columns and labels:
[1] = Pharmacokinetics and tissue distribution study of HCQ in SD rats after single-dose IV/IT Free HCQ or IT TLC19 (Study No. PK20021); conditions: for concentration at 24 h / AUC(0-t) / Cmax: Sprague-Dawley, rat, in vivo; for concentration at 24 h: 0.59 mg/animal; for AUC(0-t) / Cmax: 0.59 mg; for Cmax: Cmax of HCQ; for Cmax / Tmax of HCQ / AUC0-72 of HCQ: Free HCQ, 0.590 mg/animal; for Tmax of HCQ: median; for mean HCQ concentration in lung, starting value of decline: start of the first 24 hours post-dose
[2] = tested on: SARS-CoV-infected human airway epithelial (HAE) cells; conditions: read-out: in vitro antiviral EC50; cited from earlier work

## CCN(CCO)CCCC(C)Nc1ccnc2cc(Cl)ccc12 (stereo not drawn) [Free HCQ, hydroxychloroquine]
[1]
  concentration at 24 h: 2160 ng/g
[1]; inhaled or intranasal
  AUC(0-t): 2.26 µg·h/mL
[1]; inhaled or intranasal, rat blood, IT administration
  Cmax: 0.477 µg/mL
[1]; inhaled or intranasal, rat heart, IT administration
  Cmax: 3800 ng/g
[1]; inhaled or intranasal, rat lung, IT administration
  Cmax: 47800 ng/g
[1]; iv
  AUC(0-t): 2.33 µg·h/mL
  concentration at 24 h: 3770 ng/g
[1]; iv, rat blood, IV injection
  Cmax: 0.433 µg/mL
[1]; iv, rat heart, IV injection
  Cmax: 4500 ng/g
[1]; iv, rat lung, IV injection
  Cmax: 9400 ng/g
[1]; rat blood, Free HCQ 0.590 mg/animal
  overall systemic exposures (Cmax and AUC), IV group compared with IT group: similar
[1]; rat blood, IT administration
  Tmax of HCQ: 15 min
[1]; rat blood, IV injection
  Tmax of HCQ: 15 min
[1]; rat heart, IT administration
  AUC0-72 of HCQ: 64.2 µg·h/g
  Tmax of HCQ: 15 min
[1]; rat heart, IV injection
  AUC0-72 of HCQ: 67.2 µg·h/g
  Tmax of HCQ: 15 min
[1]; rat lung, Free HCQ IT group
  mean HCQ concentration in lung, starting value of decline: 47.8 µg/g
[1]; rat lung, Free HCQ IV group
  mean HCQ concentration in lung, starting value of decline: 9.4 µg/g
[1]; rat lung, IT administration
  AUC0-72 of HCQ: 329 µg·h/g
  Tmax of HCQ: 15 min
[1]; rat lung, IV injection
  AUC0-72 of HCQ: 252 µg·h/g
  Tmax of HCQ: 15 min

## N#C[C@@]1(c2ccc3c(N)ncnn23)O[C@H](CO)[C@@H](O)[C@H]1O [GS-441524, (2R,3R,4S,5R)-2-(4-aminopyrrolo[2,1-f][1,2,4]triazin-7-yl)-3,4-dihydroxy-5-(hydroxymethyl) oxolane-2-carbonitrile]
[2]
  EC50: 0.18 µM
